Test results: patent publication US20160145580A1, “METHOD OF CULTURING CANCER STEM CELLS” (AGENCY FOR SCIENCE, TECHNOLOGY AND RESEARCH, priority 2013, published 2016)
Like-named read-outs stand apart in the source and are kept apart here.

Test system: MDA-MB-231 cells
Experiment: cells
Type: cell-based
Details: Homo sapiens, MDA-MB-231, 48 h
Protocol: Here, 250 μl of MDA-MB-231 cells in culture medium at cell density of 5.2×10^3 cells/ml was seeded onto the gels (0.2, 0.5, 1.0, 2.5 and 4.0 kPa). The culture medium was changed every 3 days. […] Then, the cells were washed with PBS and the fluorescence intensity was measured using the AlamarBlue cell viability assay as described above. Cell viability in the presence of anti-cancer drugs was normalized to the untreated control groups (0 μM).

COc1cccc2c1C(=O)c1c(O)c3c(c(O)c1C2=O)C[C@@](O)(C(=O)CO)C[C@@H]3O[C@H]1C[C@H](N)[C@H](O)[C@H](C)O1 [doxorubicin]
viability at 100 µM (read-out: cell viability, 100 μM doxorubicin, 48 hours, 0.2 and 0.5 kPa gels): ~80% | viability at 100 µM (read-out: cell viability, 100 μM doxorubicin, 48 hours, HA-Tyr gels 2.5 and 4.0 kPa): ~20% | viability at 100 µM (read-out: cell viability, 100 μM doxorubicin, 48 hours, cell culture plate): ~10%
